This assay has as its system MCH receptors. Briefly: MCH receptor activity class (method not given). Particulars: activity class per percent of control at 10^-7 M or IC50.

As for `CN(C)c1nc(N[C@H]2CC[C@@H](NC(=O)c3ccccc3-c3ccccc3)CC2)nc2c1CCCC2` [compound 1031], the class is 3 (Class 3 The value of percent of control at 10^−7 M was more than 60% or the value of IC50 was more than 200 nM.). Then `CN(C)c1nc(N[C@H]2CC[C@@H](NC(=O)CC(c3ccccc3)c3ccccc3)CC2)nc2c1CCCC2` [compound 1032], with 3 (Class 3 The value of percent of control at 10^−7 M was more than 60% or the value of IC50 was more than 200 nM.). The figure for `CN(C)c1nc(N[C@H]2CC[C@@H](NC(=O)c3cc(-c4ccccc4)nc4ccccc34)CC2)nc2c1CCCC2` [compound 1033] is 2 (Class 2: The value of percent of control at 10^−7 M was from 40% to 60% or the value of IC′50 was from 50 nM to 200 nM.). Then `C[C@H](NC(=O)c1ccccc1C(=O)N[C@H]1CC[C@@H](Nc2nc3c(c(N(C)C)n2)CCCC3)CC1)c1ccccc1` [compound 1034], with 3 (Class 3 The value of percent of control at 10^−7 M was more than 60% or the value of IC50 was more than 200 nM.); and `Cc1ccc(C(=O)c2ccccc2C(=O)N[C@H]2CC[C@@H](Nc3nc4c(c(N(C)C)n3)CCCC4)CC2)cc1` [compound 1035], with 3 (Class 3 The value of percent of control at 10^−7 M was more than 60% or the value of IC50 was more than 200 nM.); and `CN(C)c1nc(N[C@H]2CC[C@@H](NC(=O)c3ccccc3COc3ccccc3)CC2)nc2c1CCCC2` [compound 1036], with 3 (Class 3 The value of percent of control at 10^−7 M was more than 60% or the value of IC50 was more than 200 nM.). Regarding `CN(C)c1nc(N[C@H]2CC[C@@H](NC(=O)Cc3sc(-c4ccccc4)nc3-c3ccc(Cl)cc3)CC2)nc2c1CCCC2` [compound 1037], the class is recorded as 3 (Class 3 The value of percent of control at 10^−7 M was more than 60% or the value of IC50 was more than 200 nM.). As for `Cc1ccc(S(=O)(=O)n2ccc(C(=O)N[C@H]3CC[C@@H](Nc4nc5c(c(N(C)C)n4)CCCC5)CC3)c2)cc1` [compound 1038], the class is 3 (Class 3 The value of percent of control at 10^−7 M was more than 60% or the value of IC50 was more than 200 nM.). For the compound `CN(C)c1nc(N[C@H]2CC[C@@H](NC(=O)c3ccc(-c4cccc([N+](=O)[O-])c4)o3)CC2)nc2c1CCCC2` [compound 1039], the class is 2 (Class 2: The value of percent of control at 10^−7 M was from 40% to 60% or the value of IC′50 was from 50 nM to 200 nM.). Then `CN(C)c1nc(N[C@H]2CC[C@@H](NC(=O)c3scc(S(C)(=O)=O)c3Cl)CC2)nc2c1CCCC2` [compound 1040], with 3 (Class 3 The value of percent of control at 10^−7 M was more than 60% or the value of IC50 was more than 200 nM.); and `CSc1sc(C(=O)N[C@H]2CC[C@@H](Nc3nc4c(c(N(C)C)n3)CCCC4)CC2)c(Cl)c1S(=O)(=O)C(C)C` [compound 1041], with 3 (Class 3 The value of percent of control at 10^−7 M was more than 60% or the value of IC50 was more than 200 nM.). For the compound `CSc1sc(C(=O)N[C@H]2CC[C@@H](Nc3nc4c(c(N(C)C)n3)CCCC4)CC2)c(I)c1S(=O)(=O)C(C)C` [compound 1042], the class was 3 (Class 3 The value of percent of control at 10^−7 M was more than 60% or the value of IC50 was more than 200 nM.). Then `CN(C)c1nc(N[C@H]2CC[C@@H](NC(=O)c3csc([N+](=O)[O-])c3)CC2)nc2c1CCCC2` [compound 1043], with 1 (Class 1: The value of percent of control at 10^−7 M was less than 40% or the value of IC50 was less than 50 nM.). Regarding `CN(C)c1nc(N[C@H]2CC[C@@H](NC(=O)c3cc([N+](=O)[O-])cn3C)CC2)nc2c1CCCC2` [compound 1044], the class is reported as 1 (Class 1: The value of percent of control at 10^−7 M was less than 40% or the value of IC50 was less than 50 nM.).

For the compound `CN(C)c1nc(N[C@H]2CC[C@@H](NC(=O)c3cn(S(=O)(=O)c4ccccc4)c4ccccc34)CC2)nc2c1CCCC2` [compound 1045], the class is reported as 3 (Class 3 The value of percent of control at 10^−7 M was more than 60% or the value of IC50 was more than 200 nM.).

As for `CN(C)c1nc(N[C@H]2CC[C@@H](NC(=O)c3ccc([N+](=O)[O-])cc3)CC2)nc2c1CCCC2` [compound 1046], the class was 3 (Class 3 The value of percent of control at 10^−7 M was more than 60% or the value of IC50 was more than 200 nM.). Then `COc1cc([N+](=O)[O-])ccc1C(=O)N[C@H]1CC[C@@H](Nc2nc3c(c(N(C)C)n2)CCCC3)CC1` [compound 1047], with 2 (Class 2: The value of percent of control at 10^−7 M was from 40% to 60% or the value of IC′50 was from 50 nM to 200 nM.). In the case of `CN(C)c1nc(N[C@H]2CC[C@@H](NC(=O)c3ccc(C(F)(F)F)c(F)c3)CC2)nc2c1CCCC2` [compound 1048], the class is recorded as 3 (Class 3 The value of percent of control at 10^−7 M was more than 60% or the value of IC50 was more than 200 nM.). The figure for `CN(C)c1nc(N[C@H]2CC[C@@H](NC(=O)c3ccc([N+](=O)[O-])cc3F)CC2)nc2c1CCCC2` [compound 1049] is 3 (Class 3 The value of percent of control at 10^−7 M was more than 60% or the value of IC50 was more than 200 nM.); for `Cc1cc(C(=O)N[C@H]2CC[C@@H](Nc3nc4c(c(N(C)C)n3)CCCC4)CC2)cc(C)c1[N+](=O)[O-]` [compound 1050] it is 3 (Class 3 The value of percent of control at 10^−7 M was more than 60% or the value of IC50 was more than 200 nM.).

For the compound `Cc1cc(C)c(C(=O)C(=O)N[C@H]2CC[C@@H](Nc3nc4c(c(N(C)C)n3)CCCC4)CC2)c(C)c1` [compound 1051], the class is reported as 3 (Class 3 The value of percent of control at 10^−7 M was more than 60% or the value of IC50 was more than 200 nM.). As for `CN(C)c1nc(N[C@H]2CC[C@@H](NC(=O)c3ccc4ncsc4c3)CC2)nc2c1CCCC2` [compound 1054], the class was 3 (Class 3 The value of percent of control at 10^−7 M was more than 60% or the value of IC50 was more than 200 nM.). The figure for `CN(C)c1nc(N[C@H]2CC[C@@H](NC(=O)c3cc(Cl)ccc3O)CC2)nc2c1CCCC2` [compound 1055] is 1 (Class 1: The value of percent of control at 10^−7 M was less than 40% or the value of IC50 was less than 50 nM.); for `CSc1ccc(Cl)c(C(=O)N[C@H]2CC[C@@H](Nc3nc4c(c(N(C)C)n3)CCCC4)CC2)c1` [compound 1056] it is 3 (Class 3 The value of percent of control at 10^−7 M was more than 60% or the value of IC50 was more than 200 nM.). With `COc1cccc2cc(C(=O)N[C@H]3CC[C@@H](Nc4nc5c(c(N(C)C)n4)CCCC5)CC3)oc12` [compound 1057], the class was 3 (Class 3 The value of percent of control at 10^−7 M was more than 60% or the value of IC50 was more than 200 nM.). As to `Cc1cccc(C(=O)N[C@H]2CC[C@@H](Nc3nc4c(c(N(C)C)n3)CCCC4)CC2)c1N` [compound 1058], the class is 3 (Class 3 The value of percent of control at 10^−7 M was more than 60% or the value of IC50 was more than 200 nM.). The figure for `C=CCSc1ncccc1C(=O)N[C@H]1CC[C@@H](Nc2nc3c(c(N(C)C)n2)CCCC3)CC1` [compound 1059] is 3 (Class 3 The value of percent of control at 10^−7 M was more than 60% or the value of IC50 was more than 200 nM.).

For `CN(C)c1nc(N[C@H]2CC[C@@H](NC(=O)c3cc(C(C)(C)C)c(O)c(C(C)(C)C)c3)CC2)nc2c1CCCC2` [compound 1060], the class is listed as 3 (Class 3 The value of percent of control at 10^−7 M was more than 60% or the value of IC50 was more than 200 nM.). The figure for `CN(C)c1nc(N[C@H]2CC[C@@H](CNC(=O)c3ccc(Br)s3)CC2)nc2c1CCCC2` [compound 1061] is 3 (Class 3 The value of percent of control at 10^−7 M was more than 60% or the value of IC50 was more than 200 nM.); for `CN(C)c1nc(N[C@H]2CC[C@@H](CNC(=O)Cc3c(Cl)ccc(Cl)c3Cl)CC2)nc2c1CCCC2` [compound 1062] it is 2 (Class 2: The value of percent of control at 10^−7 M was from 40% to 60% or the value of IC′50 was from 50 nM to 200 nM.). Then `CN(C)c1nc(N[C@H]2CC[C@@H](CNC(=O)Cc3ccc(F)cc3Cl)CC2)nc2c1CCCC2` [compound 1063], with 3 (Class 3 The value of percent of control at 10^−7 M was more than 60% or the value of IC50 was more than 200 nM.). The figure for `CN(C)c1nc(N[C@H]2CC[C@@H](CNC(=O)c3ccc(-c4ccc(Cl)cc4[N+](=O)[O-])o3)CC2)nc2c1CCCC2` [compound 1064] is 3 (Class 3 The value of percent of control at 10^−7 M was more than 60% or the value of IC50 was more than 200 nM.). As to `CN(C)c1nc(N[C@H]2CC[C@@H](CNC(=O)c3ccc(Cl)s3)CC2)nc2c1CCCC2` [compound 1065], the class is given as 3 (Class 3 The value of percent of control at 10^−7 M was more than 60% or the value of IC50 was more than 200 nM.).

Consider `CN(C)c1nc(N[C@H]2CC[C@@H](CNC(=O)CCc3ccccc3O)CC2)nc2c1CCCC2` [compound 1067], for which the class is 3 (Class 3 The value of percent of control at 10^−7 M was more than 60% or the value of IC50 was more than 200 nM.). On to `CN(C)c1nc(N[C@H]2CC[C@@H](CNC(=O)c3ccc(I)o3)CC2)nc2c1CCCC2` [compound 1068], for which the class is recorded as 3 (Class 3 The value of percent of control at 10^−7 M was more than 60% or the value of IC50 was more than 200 nM.).

`CN(C)c1nc(N[C@H]2CC[C@@H](CNC(=O)Cc3ccccc3I)CC2)nc2c1CCCC2` [compound 1069]: the class is 3 (Class 3 The value of percent of control at 10^−7 M was more than 60% or the value of IC50 was more than 200 nM.). The figure for `CN(C)c1nc(N[C@H]2CC[C@@H](CNC(=O)/C=C/c3cccc([N+](=O)[O-])c3)CC2)nc2c1CCCC2` [compound 1070] is 2 (Class 2: The value of percent of control at 10^−7 M was from 40% to 60% or the value of IC′50 was from 50 nM to 200 nM.). The figure for `CN(C)c1nc(N[C@H]2CC[C@@H](CNC(=O)c3ccccc3Cc3ccccc3)CC2)nc2c1CCCC2` [compound 1072] is 3 (Class 3 The value of percent of control at 10^−7 M was more than 60% or the value of IC50 was more than 200 nM.); for `CN(C)c1nc(N[C@H]2CC[C@@H](CNC(=O)C(c3ccc(Cl)cc3)c3ccc(Cl)cc3)CC2)nc2c1CCCC2` [compound 1073] it is 3 (Class 3 The value of percent of control at 10^−7 M was more than 60% or the value of IC50 was more than 200 nM.).

The values above are taken from patent US20050197350A1, “Novel quinoline, tetrahydroquinazoline, and pyrimidine derivatives and methods of treatment related to the use thereof” (TAISHO PHARMACEUTICAL CO., LTD., priority 2003, published 2005).
